Reference: article PMC6691401 (Journal of Medicinal Chemistry, 2019)
Where two headings read alike, the source gives them in different places.

What was measured:
Mab TrmD [1] = molecular target: T1, Mab TrmD (Mycobacteroides abscessus, UniProt B1MDI3); experiment: Isothermal titration calorimetry (ITC); format: binding; details: for LE: ligand efficiency; for GE (R^1): group efficiency of R^1; for GE: group efficiency of the added group; for GE (CH2R^1): group efficiency of CH2R^1
Mab TrmD [2] = molecular target: T1, Mab TrmD; details: ligand efficiency, previously reported, cited from earlier work

T1 sequence (B1MDI3 entry or part of it): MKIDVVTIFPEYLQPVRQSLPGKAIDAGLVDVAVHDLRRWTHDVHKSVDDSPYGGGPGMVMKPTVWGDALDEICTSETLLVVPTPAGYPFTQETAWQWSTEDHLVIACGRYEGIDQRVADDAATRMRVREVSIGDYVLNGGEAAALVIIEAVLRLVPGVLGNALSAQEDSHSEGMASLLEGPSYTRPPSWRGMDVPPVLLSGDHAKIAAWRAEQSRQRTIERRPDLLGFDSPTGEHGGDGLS

CCOC(=O)c1cnn(CC#Cc2cc(COC(=O)c3cn[nH]c3)cc(OC)c2)c1 [Compound 12, Ethyl 1-(3-(3-(((1H-Pyrazole-4-carbonyl)oxy)methyl)-5-methoxyphenyl)prop-2-yn-1-yl)-1H-pyrazole-4-carboxylate]
LE (Mab TrmD [1]; Table 2): 0.24 kcal mol^–1 per heavy atom | LE (Mab TrmD [1]): 0.24 kcal mol^–1 per heavy atom

N#Cc1c(N)n[nH]c1-c1ccc2ccn(Cc3cccnc3)c2c1 [Compound 26g, 3-Amino-5-(1-(pyridin-3-ylmethyl)-1H-indol-6-yl)-1H-pyrazole-4-carbonitrile]
fold improvement in binding affinity (decrease of Kd) relative to 26f (Mab TrmD [1]): greater than 2 fold | GE (R^1) (Mab TrmD [1]; Table 5): 0.28 kcal mol^–1 per heavy atom | LE (Mab TrmD [1]; Table 5): 0.38 kcal mol^–1 per heavy atom | LE (Mab TrmD [1]): 0.38 kcal mol^–1 per heavy atom

N#Cc1ccccc1Cn1ccc2ccc(-c3cc(N)n[nH]3)cc21 [Compound 24d, 2-((6-(3-Amino-1H-pyrazol-5-yl)-1H-indol-1-yl)methyl)benzonitrile]
GE (R^1) (Mab TrmD [1]; Table 4): 0.15 kcal mol^–1 per heavy atom | LE (Mab TrmD [1]; Table 4): 0.28 kcal mol^–1 per heavy atom | LE (Mab TrmD [1]): 0.28 kcal mol^–1 per heavy atom

Nc1cc(-c2ccc3ccn(Cc4ccccn4)c3c2)[nH]n1 [Compound 24f, 5-(1-(Pyridin-2-ylmethyl)-1H-indol-6-yl)-1H-pyrazol-3-amine]
GE (R^1) (Mab TrmD [1]; Table 4): 0.18 kcal mol^–1 per heavy atom | LE (Mab TrmD [2]; Table 4): 0.30 kcal mol^–1 per heavy atom | LE (Mab TrmD [2]): 0.30 kcal mol^–1 per heavy atom

COC(=O)COc1cccc(COC(=O)c2cn[nH]c2)c1 [Compound 8, 3-(2-Methoxy-2-oxoethoxy)benzyl 1H-Pyrazole-4-carboxylate]
LE (Mab TrmD [1]; Table 2): 0.32 kcal mol^–1 per heavy atom | LE (Mab TrmD [1]): 0.32 kcal mol^–1 per heavy atom

COc1cc(COC(=O)c2cn[nH]c2)cc(-c2cccnc2)c1 [Compound 14, 3-Methoxy-5-(pyridin-3-yl)benzyl 1H-Pyrazole-4-carboxylate]
LE (Mab TrmD [1]; Table 2): 0.31 kcal mol^–1 per heavy atom | LE (Mab TrmD [1]): 0.31 kcal mol^–1 per heavy atom

N#Cc1c(N)n[nH]c1-c1ccc2cc[nH]c2c1 [Compound 25, 3-Amino-5-(1H-indol-6-yl)-1H-pyrazole-4-carbonitrile]
LE (Mab TrmD [1]; Table 4): 0.43 kcal mol^–1 per heavy atom | GE (Mab TrmD [1]): 0.91 kcal mol^–1 per heavy atom | LE (Mab TrmD [1]): 0.43 kcal mol^–1 per heavy atom

CN1CCCC(Cn2ccc3ccc(-c4[nH]nc(N)c4C#N)cc32)C1 (stereo not shown) [Compound 26o, 3-Amino-5-(1-((1-methylpiperidin-3-yl)methyl)-1H-indol-6-yl)-1H-pyrazole-4-carbonitrile]
GE (R^1) (Mab TrmD [1]; Table 5): 0.20 kcal mol^–1 per heavy atom | LE (Mab TrmD [1]; Table 5): 0.35 kcal mol^–1 per heavy atom | LE (Mab TrmD [1]): 0.35 kcal mol^–1 per heavy atom

CCOC(=O)c1cn[nH]c1 [Compound 1, ethyl 1H-pyrazole-4-carboxylate]
LE (Mab TrmD [1]; Table 1): 0.55 kcal mol^–1 per heavy atom | LE (Mab TrmD [1]): 0.55 kcal mol^–1 per heavy atom

O=C(OCc1ccccc1)c1cn[nH]c1 [Compound 3, Benzyl 1H-Pyrazole-4-carboxylate]
LE (Mab TrmD [1]; Table 1): 0.41 kcal mol^–1 per heavy atom | LE (Mab TrmD [1]): 0.41 kcal mol^–1 per heavy atom

COc1cc(COC(=O)c2cn[nH]c2)cc(Cc2cccnc2)c1 [Compound 15]
LE (Mab TrmD [1]; Table 2): 0.28 kcal mol^–1 per heavy atom | LE (Mab TrmD [1]): 0.28 kcal mol^–1 per heavy atom

Nc1cc(-c2ccc3ccn(Cc4ccc(CN5CCCC5)cc4)c3c2)[nH]n1 [Compound 31a, 5-(1-(4-(Pyrrolidin-1-ylmethyl)benzyl)-1H-indol-6-yl)-1H-pyrazol-3-amine]
GE (CH2R^1) (Mab TrmD [1]; Table 6): 0.36 kcal mol^–1 per heavy atom | LE (Mab TrmD [2]; Table 6): 0.31 kcal mol^–1 per heavy atom

N#Cc1c(N)n[nH]c1-c1ccc2ccn(Cc3ccc(CN4CCOCC4)cc3)c2c1 [Compound 29c, 3-Amino-5-(1-(4-(morpholinomethyl)benzyl)-1H-indol-6-yl)-1H-pyrazole-4-carbonitrile]
Kd (Mab TrmD [1]; Table 6): 190 ± 23 nM | LE (Mab TrmD [1]; Table 6): 0.30 kcal mol^–1 per heavy atom | LE (Mab TrmD [1]): 0.30 kcal mol^–1 per heavy atom

N#Cc1cccc(COC(=O)c2cn[nH]c2)c1 [Compound 6, 3-Cyanobenzyl 1H-Pyrazole-4-carboxylate]
LE (Mab TrmD [1]; Table 1): 0.36 kcal mol^–1 per heavy atom

CN1CCN(Cc2ccc(Cn3ccc4ccc(-c5[nH]nc(N)c5C#N)cc43)cc2)CC1 [Compound 29d, 3-Amino-5-(1-(4-((4-methylpiperazin-1-yl)methyl)benzyl)-1H-indol-6-yl)-1H-pyrazole-4-carbonitrile]
LE (Mab TrmD [2]; Table 6): 0.30 kcal mol^–1 per heavy atom | LE (Mab TrmD [2]): 0.30 kcal mol^–1 per heavy atom

Nc1cc(-c2ccc3cc[nH]c3c2)[nH]n1 [Compound 23, 5-(1H-Indol-6-yl)-1H-pyrazol-3-amine]
LE (Mab TrmD [2]; Table 3): 0.36 kcal mol^–1 per heavy atom | LE (Mab TrmD [2]): 0.36 kcal mol^–1 per heavy atom

N#Cc1c(N)n[nH]c1-c1ccc2ccn(Cc3ccc(CN4CCCCC4)cc3)c2c1 [Compound 29b, 3-Amino-5-(1-(4-(piperidin-1-ylmethyl)benzyl)-1H-indol-6-yl)-1H-pyrazole-4-carbonitrile]
Kd (Mab TrmD [1]; Table 6): 70 ± 29 nM | LE (Mab TrmD [1]; Table 6): 0.31 kcal mol^–1 per heavy atom

N#Cc1c(N)n[nH]c1-c1ccc2ccn(Cc3cccnc3O)c2c1 [Compound 26j, 3-Amino-5-(1-((2-hydroxypyridin-3-yl)methyl)-1H-indol-6-yl)-1H-pyrazole-4-carbonitrile]
GE (R^1) (Mab TrmD [1]; Table 5): 0.03 kcal mol^–1 per heavy atom | LE (Mab TrmD [1]; Table 5): 0.30 kcal mol^–1 per heavy atom | LE (Mab TrmD [1]): 0.30 kcal mol^–1 per heavy atom

COc1cccc(COC(=O)c2cn[nH]c2)c1 [Compound 7, 3-Methoxybenzyl 1H-Pyrazole-4-carboxylate]
LE (Mab TrmD [1]; Table 1): 0.39 kcal mol^–1 per heavy atom | LE (Mab TrmD [1]): 0.39 kcal mol^–1 per heavy atom

N#Cc1c(N)n[nH]c1-c1ccc2ccn(Cc3ccncc3)c2c1 [Compound 26l, 3-Amino-5-(1-(pyridin-4-ylmethyl)-1H-indol-6-yl)-1H-pyrazole-4-carbonitrile]
fold improvement in binding affinity (decrease of Kd) relative to 26f (Mab TrmD [1]): 4 fold | GE (R^1) (Mab TrmD [1]; Table 5): 0.31 kcal mol^–1 per heavy atom | LE (Mab TrmD [1]; Table 5): 0.39 kcal mol^–1 per heavy atom | LE (Mab TrmD [1]): 0.39 kcal mol^–1 per heavy atom

N#Cc1c(N)n[nH]c1-c1ccc2ccn(Cc3ccc(O)nc3)c2c1 [Compound 26k, 3-Amino-5-(1-((6-hydroxypyridin-3-yl)methyl)-1H-indol-6-yl)-1H-pyrazole-4-carbonitrile]
GE (R^1) (Mab TrmD [1]; Table 5): 0.10 kcal mol^–1 per heavy atom | LE (Mab TrmD [1]; Table 5): 0.32 kcal mol^–1 per heavy atom | LE (Mab TrmD [1]): 0.32 kcal mol^–1 per heavy atom

COc1cc(COC(=O)c2cn[nH]c2)cc(N2CCCC2)c1 [Compound 13, 3-Methoxy-5-(pyrrolidin-1-yl)benzyl 1H-Pyrazole-4-carboxylate]
LE (Mab TrmD [1]; Table 2): 0.31 kcal mol^–1 per heavy atom | LE (Mab TrmD [1]): 0.31 kcal mol^–1 per heavy atom

Cc1c(N)n[nH]c1-c1ccc2ccn(Cc3ccc(CN4CCCC4)cc3)c2c1 [Compound 30a, 4-Methyl-5-(1-(4-(pyrrolidin-1-ylmethyl)benzyl)-1H-indol-6-yl)-1H-pyrazol-3-amine]
Kd (Mab TrmD [1]; Table 6): 2000 ± 310 nM | LE (Mab TrmD [1]; Table 6): 0.27 kcal mol^–1 per heavy atom

CC(C)N1CCN(Cc2ccc(Cn3ccc4ccc(-c5[nH]nc(N)c5C#N)cc43)cc2)CC1 [Compound 29e, 3-Amino-5-(1-(4-((4-isopropylpiperazin-1-yl)methyl)benzyl)-1H-indol-6-yl)-1H-pyrazole-4-carbonitrile]
Kd (Mab TrmD [1]; Table 6): 100 ± 24 nM | LE (Mab TrmD [1]; Table 6): 0.28 kcal mol^–1 per heavy atom | LE (Mab TrmD [1]): 0.28 kcal mol^–1 per heavy atom

CN1CCCCC1Cn1ccc2ccc(-c3[nH]nc(N)c3C#N)cc21 (stereo not shown) [Compound 26n, 3-Amino-5-(1-((1-methylpiperidin-2-yl)methyl)-1H-indol-6-yl)-1H-pyrazole-4-carbonitrile]
GE (R^1) (Mab TrmD [1]; Table 5): 0.16 kcal mol^–1 per heavy atom | LE (Mab TrmD [1]; Table 5): 0.34 kcal mol^–1 per heavy atom | LE (Mab TrmD [1]): 0.34 kcal mol^–1 per heavy atom

N#Cc1c(N)n[nH]c1-c1ccc2c(Cl)cn(Cc3cccnc3)c2c1 [Compound 27g, 3-Amino-5-(3-chloro-1-(pyridin-3-ylmethyl)-1H-indol-6-yl)-1H-pyrazole-4-carbonitrile]
LE (Mab TrmD [1]; Table 5): 0.28 kcal mol^–1 per heavy atom | LE (Mab TrmD [1]): 0.28 kcal mol^–1 per heavy atom

N#Cc1c(N)n[nH]c1-c1ccc2ccn(Cc3ccc(CN4CCCC4)cn3)c2c1 [Compound 28, 3-Amino-5-(1-((5-(pyrrolidin-1-ylmethyl)pyridin-2-yl)methyl)-1H-indol-6-yl)-1H-pyrazole-4-carbonitrile]
GE (CH2R^1) (Mab TrmD [1]; Table 6): 0.17 kcal mol^–1 per heavy atom | LE (Mab TrmD [2]; Table 6): 0.32 kcal mol^–1 per heavy atom | LE (Mab TrmD [2]): 0.32 kcal mol^–1 per heavy atom

Nc1cc(-c2ccc3ccn(Cc4ccc(CN5CCCCC5)cc4)c3c2)[nH]n1 [Compound 31b, 5-(1-(4-(Piperidin-1-ylmethyl)benzyl)-1H-indol-6-yl)-1H-pyrazol-3-amine]
Kd (Mab TrmD [1]; Table 6): 710 ± 90 nM | GE (CH2R^1) (Mab TrmD [1]; Table 6): 0.28 kcal mol^–1 per heavy atom | LE (Mab TrmD [1]; Table 6): 0.29 kcal mol^–1 per heavy atom

COc1cccc(Cn2ccc3ccc(-c4cc(N)n[nH]4)cc32)c1 [Compound 24b, 5-(1-(3-Methoxybenzyl)-1H-indol-6-yl)-1H-pyrazol-3-amine]
GE (R^1) (Mab TrmD [1]; Table 4): 0.14 kcal mol^–1 per heavy atom | LE (Mab TrmD [1]; Table 4): 0.28 kcal mol^–1 per heavy atom | GE (Mab TrmD [1]): 0.14 kcal mol^–1 per heavy atom | LE (Mab TrmD [1]): 0.28 kcal mol^–1 per heavy atom

CCOc1cccc(COC(=O)c2cn[nH]c2)c1 [Compound 10, 3-Ethoxybenzyl 1H-Pyrazole-4-carboxylate]
LE (Mab TrmD [1]; Table 2): 0.38 kcal mol^–1 per heavy atom | LE (Mab TrmD [1]): 0.38 kcal mol^–1 per heavy atom

COc1ccc(Cn2ccc3ccc(-c4cc(N)n[nH]4)cc32)cc1 [Compound 24a, 5-(1-(4-Methoxybenzyl)-1H-indol-6-yl)-1H-pyrazol-3-amine]
GE (R^1) (Mab TrmD [1]; Table 4): 0.04 kcal mol^–1 per heavy atom | LE (Mab TrmD [1]; Table 4): 0.24 kcal mol^–1 per heavy atom | LE (Mab TrmD [1]): 0.24 kcal mol^–1 per heavy atom
